For this data set the following is noted: 308.15 K, 101.33 kPa, Liquid; for viscosity: Capillary tube (Ostwald / Ubbelohde) method; for speed of sound: Pulse-echo method; for mass density: Vibrating tube method.

Structures are written as SMILES. ± gives the expanded uncertainty stated by the source.

Usually viscosity stands for the internal friction of a fluid under shear. As usually defined, the speed of sound is how fast a sound wave travels through the sample. By mass density is commonly meant the mass of a sample divided by its volume. Take `CCC(O)CO` (stereo not given) [1,2-butanediol]: the viscosity was 30.29 ± 0.56 mPa·s, the speed of sound turned out to be 1422.6 ± 3.7 m/s and the mass density came to 988.25 ± 1.1 kg/m3.

For the compound `CC(O)CCO` (stereo not given) [1,3-butanediol], the viscosity is on record as 54.24 ± 1.1 mPa·s, the speed of sound worked out at 1496 ± 3.2 m/s and the mass density was 991.28 ± 0.75 kg/m3.

Consider `OCCCCO` [1,4-butanediol], for which the viscosity stood at 47.38 ± 0.94 mPa·s, the speed of sound is 1577.8 ± 3.2 m/s and the mass density was found to be 1003.95 ± 0.76 kg/m3.

As to `CC(O)C(C)O` (stereo not given) [2,3-butanediol], the viscosity came out at 51.38 ± 1.1 mPa·s, the speed of sound was 1456.6 ± 3.7 m/s and the mass density is 990.72 ± 1.1 kg/m3.

In the case of `O=C1CCCN1` [2-pyrrolidinone], the viscosity is 8.922 ± 0.095 mPa·s, the speed of sound turned out to be 1600 ± 3.3 m/s and the mass density is listed as 1097.14 ± 0.85 kg/m3.

Source of the values: the NIST ThermoML archive (doi:10.1016/j.jct.2012.08.026).
